Measurements: US8497240B2 (priority 2006, dated 2013)
Read-outs that look alike come from different tables or passages of the source. Ends that are not written are not given here.

How the values were obtained:
human GIP receptor = target: T1, human GIP receptor (Homo sapiens, UniProt P48546); experiment: biochemical; type: binding
T1 construct: expressed in transfected cells; host or cells: HEK293 (HEK-GIPR), membranes
T1 sequence (P48546 22-466): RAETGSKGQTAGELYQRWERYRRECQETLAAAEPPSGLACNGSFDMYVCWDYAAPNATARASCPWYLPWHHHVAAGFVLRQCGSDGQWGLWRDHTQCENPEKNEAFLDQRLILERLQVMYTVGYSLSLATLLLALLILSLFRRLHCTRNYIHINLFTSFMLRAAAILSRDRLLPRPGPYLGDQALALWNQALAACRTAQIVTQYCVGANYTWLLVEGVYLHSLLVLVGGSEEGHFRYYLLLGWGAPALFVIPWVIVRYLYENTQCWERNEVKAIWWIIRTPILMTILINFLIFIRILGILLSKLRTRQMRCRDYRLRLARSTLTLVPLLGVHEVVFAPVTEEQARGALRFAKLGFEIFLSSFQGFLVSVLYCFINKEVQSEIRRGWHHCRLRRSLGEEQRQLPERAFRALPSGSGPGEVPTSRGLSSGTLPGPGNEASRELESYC

[1] = type: in vivo, NIH/Swiss mice; details: 30 nmol/kg
Protocol: (§1) In FIG. 3A, bars represent mean±sd, n=6-10. […] Gavage (1.5 g/kg) was given at t=0, Sample was taken at t=30 min. […] In FIG. 3B, points represent mean±sem, n=8-15.
Peptide was injected IP at t=−5 minutes into 4-hour fasted NIH/Swiss female mice. […] In FIG. 17 points represent mean+/−sem. […] Samples were taken at t=60, t=120 and t=180.

[2] = type: in vivo, NIH/Swiss mice; details: 80 nmol/kg, AUC240
Protocol: as §1
Points represent mean±sem.

[3] = read-out: GIP RBA (% Inh 10 nM)
[4] = read-out: (% Inh 10 nm, GIP-LF Assay)

Molecule	inhibition at 0.01 µM (human GIP receptor; [3]) [%]	OGTT/GL (%) [1]	Basal Glucose Lowering at Peptide Conc. of 80 nmol/kg [2]	inhibition at 0.01 µM (human GIP receptor; [4]) [%]
CC[C@H](C)[C@H](NC(=O)[C@H](CO)NC(=O)[C@H](Cc1ccc(O)cc1)NC(=O)[C@H](CC(=O)O)NC(=O)[C@H](CO)NC(=O)[C@@H](NC(=O)[C@H](Cc1ccccc1)NC(=O)[C@@H](NC(=O)CNC(=O)[C@H](CCC(=O)O)NC(=O)[C@@H](C)NC(=O)[C@@H](N)Cc1ccc(O)cc1)[C@@H](C)O)[C@@H](C)CC)C(=O)N[C@@H](C)C(=O)N[C@@H](CC(C)C)C(=O)N[C@@H](CC(=O)O)C(=O)N[C@@H](CCCCN)C(=O)N[C@H](C(=O)N[C@@H](CCCNC(=N)N)C(=O)N[C@@H](CCC(N)=O)C(=O)N[C@@H](CCC(N)=O)C(=O)N[C@@H](CCC(=O)O)C(=O)N[C@@H](Cc1ccccc1)C(=O)N[C@H](C(=O)N[C@@H](CC(N)=O)C(=O)N[C@@H](Cc1c[nH]c2ccccc12)C(=O)N[C@@H](CC(C)C)C(=O)N[C@@H](CC(C)C)C(=O)N[C@@H](C)C(=O)N[C@@H](CCC(N)=O)C(=O)N[C@@H](CCCCN)C(=O)N1CCC[C@H]1C(=O)N[C@@H](CCCCN)C(=O)N[C@@H](CCCCN)C(=O)N[C@H](C(=O)N[C@@H](CCCNC(=N)N)C(=O)N[C@@H](Cc1ccc(O)cc1)C(=O)N[C@@H](CO)C(N)=O)[C@@H](C)CC)C(C)C)[C@@H](C)CC [0601GIP4539]	98.7	−12, 30%	−5%, AUC240	–
CC[C@H](C)[C@H](NC(=O)CNC(=O)[C@H](CCCCN)NC(=O)[C@H](Cc1c[nH]c2ccccc12)NC(=O)[C@H](CC(C)C)NC(=O)[C@@H](NC(=O)[C@H](Cc1ccccc1)NC(=O)CNC(=O)[C@H](CCCCN)NC(=O)[C@H](CCC(N)=O)NC(=O)[C@H](C)NC(=O)[C@H](CC(C)C)NC(=O)[C@H](CC(C)C)NC(=O)[C@H](Cc1c[nH]c2ccccc12)NC(=O)[C@H](CC(N)=O)NC(=O)[C@@H](NC(=O)[C@H](Cc1ccccc1)NC(=O)[C@H](CC(=O)O)NC(=O)[C@H](CCC(N)=O)NC(=O)[C@H](CCC(N)=O)NC(=O)[C@H](Cc1c[nH]cn1)NC(=O)[C@@H](NC(=O)[C@H](CCCCN)NC(=O)[C@H](CC(=O)O)NC(=O)[C@H](CCSC)NC(=O)[C@H](C)NC(=O)[C@@H](NC(=O)[C@H](CO)NC(=O)[C@H](Cc1ccc(O)cc1)NC(=O)[C@H](CC(=O)O)NC(=O)[C@H](CO)NC(=O)[C@@H](NC(=O)[C@H](Cc1ccccc1)NC(=O)[C@@H](NC(=O)CNC(=O)[C@H](CCC(=O)O)NC(=O)[C@@H](C)NC(=O)[C@@H](N)Cc1ccc(O)cc1)[C@@H](C)O)[C@@H](C)CC)[C@@H](C)CC)[C@@H](C)CC)C(C)C)C(C)C)C(=O)N[C@@H](CCC(N)=O)C(N)=O [Compound 0601GIP4619]	84.6	–	–	–
HGEGTFISDYSIALDKIRQQEFVNWLLAQKPKKIRYS-NH2 [Compound 0601GIP4842]	–	–	–	40.8
HGEGTLISDYSIAMDKIHQQDFVNWLLAQKPKKIRYS-NH2 [Compound 0601GIP4843]	–	–	–	3
CC[C@H](C)[C@H](NC(=O)[C@H](CCCCN)NC(=O)[C@H](CC(=O)O)NC(=O)[C@H](CC(C)C)NC(=O)[C@H](C)NC(=O)[C@@H](NC(=O)[C@H](CO)NC(=O)[C@H](Cc1ccc(O)cc1)NC(=O)[C@H](CC(=O)O)NC(=O)[C@H](CO)NC(=O)[C@@H](NC(=O)[C@H](Cc1ccccc1)NC(=O)[C@@H](NC(=O)CNC(=O)[C@H](CCC(=O)O)NC(=O)[C@H](C)NC(=O)[C@H](Cc1ccc(O)cc1)NC(=O)[C@@H](N)CC(C)C)[C@@H](C)O)[C@@H](C)CC)[C@@H](C)CC)C(=O)N[C@@H](C)C(=O)N[C@@H](CCC(N)=O)C(=O)N[C@@H](CCC(N)=O)C(=O)N[C@@H](CCC(=O)O)C(=O)N[C@@H](Cc1ccccc1)C(=O)N[C@H](C(=O)N[C@@H](CC(N)=O)C(=O)N[C@@H](Cc1c[nH]c2ccccc12)C(=O)N[C@@H](CC(C)C)C(=O)N[C@@H](CC(C)C)C(=O)N[C@@H](C)C(=O)N[C@@H](CCC(N)=O)C(=O)N[C@@H](CCCCN)C(=O)N1CCC[C@H]1C(=O)N[C@@H](CCCCN)C(=O)N[C@@H](CCCCN)C(=O)N[C@H](C(=O)N[C@@H](CCCNC(=N)N)C(=O)N[C@@H](Cc1ccc(O)cc1)C(=O)N[C@@H](CO)C(N)=O)[C@@H](C)CC)C(C)C [0601GIP4803]	89.9	−16, %	–	89.9
CC[C@H](C)[C@H](NC(=O)[C@H](CO)NC(=O)[C@H](Cc1ccc(O)cc1)NC(=O)[C@H](CC(=O)O)NC(=O)[C@H](CO)NC(=O)[C@@H](NC(=O)[C@H](Cc1ccccc1)NC(=O)[C@@H](NC(=O)CNC(=O)[C@H](CCC(=O)O)NC(=O)[C@H](CO)NC(=O)[C@@H](N)Cc1ccc(O)cc1)[C@@H](C)O)[C@@H](C)CC)C(=O)N[C@@H](C)C(=O)N[C@@H](CCSC)C(=O)N[C@@H](CC(=O)O)C(=O)N[C@@H](CCCCN)C(=O)N[C@H](C(=O)N[C@@H](Cc1c[nH]cn1)C(=O)N[C@@H](CCC(N)=O)C(=O)N[C@@H](CCC(N)=O)C(=O)N[C@@H](CC(=O)O)C(=O)N[C@@H](Cc1ccccc1)C(=O)N[C@H](C(=O)N[C@@H](CC(N)=O)C(=O)N[C@@H](Cc1c[nH]c2ccccc12)C(=O)N[C@@H](CC(C)C)C(=O)N[C@@H](CC(C)C)C(=O)N[C@@H](C)C(=O)N[C@@H](CCC(N)=O)C(=O)N[C@@H](CCCCN)C(=O)N1CCC[C@H]1C(=O)N[C@@H](CCCCN)C(=O)N[C@@H](CCCCN)C(=O)N[C@H](C(=O)N[C@@H](CCCNC(=N)N)C(=O)N[C@@H](Cc1ccc(O)cc1)C(=O)N[C@@H](CO)C(N)=O)[C@@H](C)CC)C(C)C)[C@@H](C)CC [0601GIP4538]	94.2	−9, 30%	–	–
CC[C@H](C)[C@H](NC(=O)[C@H](CO)NC(=O)[C@H](Cc1ccc(O)cc1)NC(=O)[C@H](CC(=O)O)NC(=O)[C@H](CO)NC(=O)[C@@H](NC(=O)[C@H](Cc1ccccc1)NC(=O)[C@@H](NC(=O)CNC(=O)[C@H](CCC(=O)O)NC(=O)[C@@H](C)NC(=O)[C@@H](N)Cc1ccc(O)cc1)[C@@H](C)O)[C@@H](C)CC)C(=O)N[C@@H](C)C(=O)N[C@@H](CCSC)C(=O)N[C@@H](CC(=O)O)C(=O)N[C@@H](CCCCN)C(=O)N[C@H](C(=O)N[C@@H](Cc1c[nH]cn1)C(=O)N[C@@H](CCC(N)=O)C(=O)N[C@@H](CCC(N)=O)C(=O)N[C@@H](CC(=O)O)C(=O)N[C@@H](Cc1ccccc1)C(=O)N[C@H](C(=O)N[C@@H](CC(N)=O)C(=O)N[C@@H](Cc1c[nH]c2ccccc12)C(=O)N[C@@H](CC(C)C)C(=O)N[C@@H](CC(C)C)C(=O)N[C@@H](C)C(=O)N[C@@H](CCC(N)=O)C(=O)N[C@@H](CCCCN)C(=O)N1CCC[C@H]1C(=O)N[C@@H](CCCCN)C(=O)NCC(=O)N[C@@H](CCCCN)C(=O)NCC(=O)N[C@@H](CCCCN)C(=O)N[C@@H](CO)C(N)=O)C(C)C)[C@@H](C)CC [0601GIP4700]	86.6	−21, 30%	−6%, AUC240	–
CC[C@H](C)[C@H](NC(=O)[C@H](CO)NC(=O)[C@H](Cc1ccc(O)cc1)NC(=O)[C@H](CC(=O)O)NC(=O)[C@H](CO)NC(=O)[C@@H](NC(=O)[C@H](Cc1ccccc1)NC(=O)[C@@H](NC(=O)CNC(=O)[C@H](CCC(=O)O)NC(=O)[C@@H](C)NC(=O)[C@@H](N)Cc1ccc(O)cc1)[C@@H](C)O)[C@@H](C)CC)C(=O)N[C@@H](C)C(=O)N[C@@H](CCSC)C(=O)N[C@@H](CC(=O)O)C(=O)N[C@@H](CCCCN)C(=O)N[C@H](C(=O)N[C@@H](Cc1c[nH]cn1)C(=O)N[C@@H](CCC(N)=O)C(=O)N[C@@H](CCC(N)=O)C(=O)N[C@@H](CC(=O)O)C(=O)N[C@@H](Cc1ccccc1)C(=O)N[C@H](C(=O)N[C@@H](CC(N)=O)C(=O)N[C@@H](Cc1c[nH]c2ccccc12)C(=O)N[C@@H](CC(C)C)C(=O)N[C@@H](CC(C)C)C(=O)N[C@@H](C)C(=O)N[C@@H](CCC(N)=O)C(=O)N[C@@H](CCCCN)C(=O)NCCC(=O)NCCC(=O)N1CCC[C@H]1C(=O)N[C@@H](CCCCN)C(=O)N[C@@H](CCCCN)C(=O)N[C@H](C(=O)N[C@@H](CCCNC(=N)N)C(=O)N[C@@H](Cc1ccc(O)cc1)C(=O)N[C@@H](CO)C(N)=O)[C@@H](C)CC)C(C)C)[C@@H](C)CC [0601GIP4648]	85.1	−20, 30%	−8%, AUC240	–
CC[C@H](C)[C@H](NC(=O)[C@H](CO)NC(=O)[C@H](Cc1ccc(O)cc1)NC(=O)[C@H](CC(=O)O)NC(=O)[C@H](CO)NC(=O)[C@@H](NC(=O)[C@H](Cc1ccccc1)NC(=O)[C@@H](NC(=O)CNC(=O)[C@H](CCC(=O)O)NC(=O)CNC(=O)[C@@H](N)Cc1c[nH]cn1)[C@@H](C)O)[C@@H](C)CC)C(=O)N[C@@H](C)C(=O)N[C@@H](CCSC)C(=O)N[C@@H](CC(=O)O)C(=O)N[C@@H](CCCCN)C(=O)N[C@H](C(=O)N[C@@H](Cc1c[nH]cn1)C(=O)N[C@@H](CCC(N)=O)C(=O)N[C@@H](CCC(N)=O)C(=O)N[C@@H](CC(=O)O)C(=O)N[C@@H](Cc1ccccc1)C(=O)N[C@H](C(=O)N[C@@H](CC(N)=O)C(=O)N[C@@H](Cc1c[nH]c2ccccc12)C(=O)N[C@@H](CC(C)C)C(=O)N[C@@H](CC(C)C)C(=O)N[C@@H](C)C(=O)N[C@@H](CCC(N)=O)C(=O)N[C@@H](CCCCN)C(=O)N1CCC[C@H]1C(=O)N[C@@H](CCCCN)C(=O)N[C@@H](CCCCN)C(=O)N[C@H](C(=O)N[C@@H](CCCNC(=N)N)C(=O)N[C@@H](Cc1ccc(O)cc1)C(=O)N[C@@H](CO)C(N)=O)[C@@H](C)CC)C(C)C)[C@@H](C)CC [Compound 0601GIP4839]	–	–	–	23.9
